Laboratory results taken from publication PMC11556746, “Anchorage of bacterial effector at plasma membrane via selective phosphatidic acid binding to modulate host cell signaling” (PLOS Pathogens, 2024).

Target: T1, BepE-BID1 (Bartonella henselae, UniProt A0A0R4J6H0)
T1 construct: gene BH13420; first BID domain (BID1) of BepE, His-tagged, expressed in E. coli, Ni-NTA
Assay: metasurface plasmon resonance (SPR), immobilised protein
Type: binding
Conditions: lipid presented in liposomes (PC:POPA, 90% PC and 10% POPA); HBS-ET buffer

T1 sequence (A0A0R4J6H0 entry or part of it): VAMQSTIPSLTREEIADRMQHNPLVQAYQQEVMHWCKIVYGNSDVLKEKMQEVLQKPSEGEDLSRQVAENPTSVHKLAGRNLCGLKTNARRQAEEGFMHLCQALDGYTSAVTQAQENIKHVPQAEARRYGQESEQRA

CCCCCCCC/C=C\CCCCCCCC(=O)O[C@H](COC(=O)CCCCCCCCCCCCCCC)COP(=O)(O)O [POPA]
Kd: ~349 nM
